Test results from publication PMC8152265, “Seconeolitsine, the Novel Inhibitor of DNA Topoisomerase I, Protects against Invasive Pneumococcal Disease Caused by Fluoroquinolone-Resistant Strains” (Antibiotics, 2021).
In brackets after ≈: the same amount, converted by molar mass. Like-named read-outs stand apart in the source and are kept apart here.

How the values were obtained:
[1] = system: human cell; parameters: method as in PMID 21169356; conditions: cited from earlier work
[2] = system: S. pneumoniae isolate CipR45 (serotype 8); assay: MIC by broth microdilution, isolate CipR45; type: cell-based, Streptococcus pneumoniae; conditions: isolate CipR45, serotype 8, low-level FQ-resistant, AGCH medium, 18–24 h
Protocol: (§1) Bacteria were grown in Todd-Hewitt broth supplemented with 0.5% yeast extract (Difco) to an optical density at 580 nm (OD580) of 0.4 to 0.5 corresponding to ca. 10^8 CFU/mL. Single-use aliquots were stored at −80 °C in 10% glycerol to use in mice infections as previously described. Antimicrobial susceptibility was tested by broth microdilution, according to the Clinical and Laboratory Standards Institute guidelines. S. pneumoniae R6 was included as a quality control. Powders of known potency of LVX and MXF were purchased from Sigma. SCN was synthesized as previously described. Briefly, for MIC determination, pneumococcal strains were grown in a casein hydrolysate-based medium with 0.3% sucrose as an energy source (AGCH medium). A 96-well plate was used including broth containing different concentrations of antibiotics. Plates were inoculated with a standardized suspension of the pneumococcal strains followed by incubation at 37 °C with 5% CO2 for 18–24 h. The minimal inhibitory concentrations (MICs) were determined by observing the lowest concentration of the agent that inhibited visible growth of the bacterium.

[3] = system: S. pneumoniae Topo I; parameters: method as in PMID 21169356; conditions: cited from earlier work
[4] = system: plasma proteins; assay: Protein binding by ultrafiltration; type: in vitro ADME; conditions: murine plasma
Protocol: Binding to serum proteins was determined by the ultrafiltration method (36) using the Centrifree micropartition system (Amicon Bioseparations, Millipore, Tullagreen, Ireland) with concentrations in murine plasma of 1 and 50 μg/mL for SCN and 5 and 50 μg/mL for LVX. Pre-filtered samples and ultrafiltrates recovered were measured by HPLC or bioassay, as described above. Percentage of SCN or LVX bound to proteins in mouse serum was calculated using the expression: [antibiotic in pre−filtered samples] − [antibiotic in ultrafiltrated samples]/[antibiotic in pre-filtered samples] × 100 as previously described.

[5] = system: S. pneumoniae isolate CipR57 (serotype 8); assay: MIC by broth microdilution, isolate CipR57; type: cell-based, Streptococcus pneumoniae; conditions: isolate CipR57, serotype 8, high-level FQ-resistant, AGCH medium, 18–24 h
Protocol: as §1

[6] = system: S. pneumoniae; parameters: method as in PMID 21169356; conditions: cited from earlier work
[7] = Serum pharmacokinetics in non-infected mice after single subcutaneous dose; type: in vivo, BALB/c mice
Protocol: Groups of two mice for each antibiotic and time-point were treated with a single subcutaneous dose of 40 mg/kg of SCN or 50 mg/kg of LVX. Blood samples were collected at 15 and 30 min and 1, 2, 4, 6, 8, 10, 12, 14, 18, and 24 h, centrifuged for 10 minutes at 2000 rpm, and the sera from the different mice were stored at −80 °C until drug assay determination.
Seconeolitsine concentrations were measured by high-pressure liquid chromatography analysis (HPLC). Chromatographic separation was performed using SunFire C18 column (150 × 4.6 mm; Waters Corporation, MA, USA) with trifluoroacetic acid and acetonitrile in the ratio 70:30 (vol./vol.) as the mobile phase. The solvent flow rate was 1.0 mL/min with a runtime of 20 minutes. The mobile phase was filtered through 0.45 µm prior to use. Standards ranging from 0−1.000 µg/mL were prepared in HPLC grade methanol. Sample dilutions, prepared in mouse serum, were injected into the column at a constant volume of 20 µl and were tested in duplicate. The detection wavelength was 270 by UV absorbance using a Waters UV–Visible 2489 module (Waters Corporation). The column was maintained at room temperature.
Plates containing a lawn of microorganism were incubated for 18–24 h at 37 °C. Standards and dilutions were prepared in mouse serum in a range from 0.03–8 µg/ mL.
Pharmacokinetic (PK) parameters measured included peak level (Cmax), time peak level (Tmax), area under the concentration time-curve from 0 to last (Clast) measured concentration (AUClast), and elimination half-life (t1/2). These parameters were estimated for both the total concentrations and the free fraction concentrations and were determined by using protein binding values, by a non-compartmental approach with the Phoenix WinNonlin program (version 6.2, Certara, NJ, USA). […] T>MIC for total and unbound concentrations (fT>MIC) were determined by a non-compartmental approach for PD data (Phoenix WinNonlin, model 220).

[8] = Hydrosolubility; type: physicochemical; conditions: data not shown
[9] = system: S. pneumoniae isolate CipR57; assay: Mouse sepsis model, survival after infection with CipR57; type: in vivo, Streptococcus pneumoniae; conditions: for survival at 36 h post-infection / survival within the first 48 h post-infection: mice infected i.p. with CipR57; for survival within the first 48 h post-infection: any concentration investigated (12.5 to 50 mg/kg s.c. every 12 h)
Protocol: (§2) BALB/c female mice (8–12 weeks old) weighing 20 g were purchased from Harlan Laboratories (Barcelona, Spain). […] Different concentrations of antibiotic (10, 20, and 40 mg/kg for SCN; 12.5, 25, and 50 mg/kg for LVX) were administered two times a day over 48 h by the subcutaneous route. The doses, interval, and schedule chosen were based in previous studies investigating the protective activity of FQs against pneumococcal sepsis in mice. Seconeolitsine stock solution was dissolved in dimethyl sulfoxide (DMSO) and the doses tested for protection in animals were prepared in PBS containing 1% DMSO. Animals in the lethal control groups were infected with S. pneumoniae and received the antibiotic solvent (PBS−1% DMSO) instead of SCN or LVX. The toxicity control for each antibiotic (no infection group) only received SCN or LVX. Animal experiments were performed in groups of at least 5 mice and were repeated twice.

[10] = system: S. pneumoniae isolate CipR15 (serotype 16F); assay: MIC by broth microdilution, isolate CipR15; type: cell-based, Streptococcus pneumoniae; conditions: AGCH medium, 18–24 h
Protocol: as §1

[11] = Toxicity control, non-infected mice; type: in vivo, BALB/c mice; conditions: 40 mg/kg, largest concentration used; 7 days of follow-up
Protocol: as §2

[12] = system: S. pneumoniae isolate CipR57; assay: Bacterial counts in blood of mice infected with CipR57; type: in vivo, Streptococcus pneumoniae; conditions: for effect on bacterial load in blood compared to the untreated group: 24 and 48 h post-infection, LVX 25 and 50 mg/kg, SCN different doses; for bacterial levels in blood at 24 h: 24 h post-infection; for bacteria in blood at 48 h: 48 h post-infection
Protocol: Bacteremic profiles (colony counts in blood) were determined from mice treated with SCN and LVX, at 24 h and 48 h post-infection, when the majority of mice were alive. To collect blood samples, volumes of 6 µl were obtained from the tail vein, as previously described, resuspended in PBS and plated onto blood agar plates at 37 °C in 5% CO2 for colony counts determination.

[13] = system: S. pneumoniae isolate CipR72 (serotype 15A); assay: MIC by broth microdilution, isolate CipR72; type: cell-based, Streptococcus pneumoniae; conditions: AGCH medium, 18–24 h
Protocol: as §1

[14] = system: S. pneumoniae isolate CipR5 (serotype 33F); assay: MIC by broth microdilution, isolate CipR5; type: cell-based, Streptococcus pneumoniae; conditions: AGCH medium, 18–24 h
Protocol: as §1

[15] = system: S. pneumoniae isolate CipR45; assay: Mouse sepsis model, survival after infection with CipR45; type: in vivo, Streptococcus pneumoniae; conditions: mice infected i.p. with CipR45
Protocol: as §2

[16] = mouse serum, single s.c. dose 40 mg/kg (seconeolitsine) or 50 mg/kg (levofloxacin)
[17] = Streptococcus pneumoniae, read-out: MIC
[18] = BALB/c, mouse, in vivo, sc, 50 mg/kg

## CNCCc1cc2c(c3c1ccc1cc4c(cc13)OCO4)OCO2 [Seconeolitsine, seconeolitsine]
[1]
  effect on human cell viability: without affecting human cell viability
[2]
  MIC: 5.2 µg/mL (≈ 16.1 µM)
[3]
  concentration inhibiting S. pneumoniae Topo I activity in vitro: ~ 10 µM
[4]; 1 µg/mL
  binding to plasma proteins: 40%
[4]; 50 µg/mL
  binding to plasma proteins: 80%
[5]
  MIC: 2.6 µg/mL (≈ 8.04 µM)
[6]
  concentration inhibiting cell growth: ~ 10 µM
[7]; by HPLC
  SCN-derived metabolites in murine plasma: not detected
[7]; [16]
  AUC0-12h: 5000 ± 0 ng·h/mL
  Cmax: 1600 ± 300 ng/mL
  Cmin: 300 ± 40 ng/mL
  Tlast: 9.0 ± 1.4 h
  Tmax: 60 ± 0 min
  t1/2: 468 ± 144 min
[7]; mouse serum, single s.c. dose 40 mg/kg (seconeolitsine) or 50 mg/kg (levofloxacin), twice the AUC0-last
  AUC0-24h: 10000 ± 100 ng·h/mL
[8]
  hydrosolubility: poor hydrosolubility
[9]; 20 mg/kg s.c. every 12 h over 48 h
  survival at 36 h post-infection: 60%
[9]; 40 mg/kg s.c. every 12 h over 48 h
  survival at 36 h post-infection: 70%
[9]; mice infected with a serotype 8-resistant strain, 40 mg/kg every 12 h during two days (abstract)
  protection at 48 h: 70%
[10]
  MIC: 2.6 µg/mL (≈ 8.04 µM)
[11]
  harm to non-infected mice (survival, aspect, breathing, hair, eyes, appetite, movement, weight): not harmful
[12]
  effect on bacterial load in blood compared to the untreated group: significantly reduced bacterial load
  bacterial levels in blood at 24 h: 10^4−10^5 CFU/mL
  bacteria in blood at 48 h: a significant proportion of mice treated with SCN were free of bacteria
[13]
  MIC: 5.2 µg/mL (≈ 16.1 µM)
[14]
  MIC: 5.2 µg/mL (≈ 16.1 µM)

## O=C(O)c1cn(C2CC2)c2cc(N3CCNCC3)c(F)cc2c1=O [CIP, ciprofloxacin]
[2]; [17]
  MIC: 4 µg/mL (≈ 12.1 µM)
[5]; [17]
  MIC: 64 µg/mL (≈ 193 µM)
[10]; [17]
  MIC: 32 µg/mL (≈ 96.6 µM)
[13]; [17]
  MIC: 64 µg/mL (≈ 193 µM)
[14]; [17]
  MIC: 16 µg/mL (≈ 48.3 µM)

## COc1c(N2C[C@@H]3CCCN[C@@H]3C2)c(F)cc2c(=O)c(C(=O)O)cn(C3CC3)c12 [MXF, moxifloxacin]
[2]; [17]
  MIC: 0.25 µg/mL (≈ 0.623 µM)
[5]; [17]
  MIC: 4 µg/mL (≈ 9.96 µM)
[10]; [17]
  MIC: 4 µg/mL (≈ 9.96 µM)
[13]; [17]
  MIC: 4 µg/mL (≈ 9.96 µM)
[14]; [17]
  MIC: 2 µg/mL (≈ 4.98 µM)

## CN(C)CCc1cc2c(c3c1ccc1cc4c(cc13)OCO4)OCO2 [N-methyl-seconeolitsine]
[1]
  effect on human cell viability: without affecting human cell viability
[3]
  concentration inhibiting S. pneumoniae Topo I activity in vitro: ~ 10 µM
[6]
  concentration inhibiting cell growth: ~ 10 µM

## C[C@H]1COc2c(N3CCN(C)CC3)c(F)cc3c(=O)c(C(=O)O)cn1c23 [Levofloxacin, levofloxacin]
[2]; [17]
  MIC: 2 µg/mL (≈ 5.53 µM)
[4]; 5 µg/mL
  binding to plasma proteins: 12%
[4]; 50 µg/mL
  binding to plasma proteins: 33%
[5]; [17]
  MIC: 16 µg/mL (≈ 44.3 µM)
[7]; [18]
  Cmax: 14700 ± 700 ng/mL
  Tmax: 15 min
  half-life: 42 min
[7]; BALB/c, mouse, in vivo, sc, 50 mg/kg, AUC0-12h
  AUC(0-t): 17300 ± 1500 ng·h/mL
[7]; BALB/c, mouse, in vivo, sc, 50 mg/kg, AUC0-24h
  AUC(0-t): 34600 ± 2900 ng·h/mL
[9]
  survival within the first 48 h post-infection: all died within the first 48 h
[9]; listed as LVX
  survival within the first 48 h post-infection: all the animals died within the first 48 h post-infection
[15]; 12.5 mg/kg s.c. every 12 h over 48 h
  survival at 36 h post-infection: 40%
[15]; 25 mg/kg s.c. every 12 h over 48 h
  survival at 36 h post-infection: 80%
[15]; 50 mg/kg s.c. every 12 h over 48 h
  survival at 36 h post-infection: 100%
[15]; 12.5 to 50 mg/kg s.c. every 12 h over 48 h
  survival at 78 h post-treatment: all mice succumbed to the infection
[10]; [17]
  MIC: 16 µg/mL (≈ 44.3 µM)
[12]
  effect on bacterial load in blood compared to the untreated group: did not reduce bacterial levels in blood
  bacterial levels in blood at 24 h: around 10^8 CFU/mL
  bacteria in blood at 48 h: High levels of bacterial counts
[13]; [17]
  MIC: 32 µg/mL (≈ 88.6 µM)
[14]; [17]
  MIC: 8 µg/mL (≈ 22.1 µM)
